Tests used:
mice = assay: Biweekly subcutaneous administration, peptide specific antibody in sera; format: in vivo, mouse; conditions: for antibodies specific for peptide (IgG or IgE) in sera: 100 μg s.c. in PBS on days 0, 14, 28 and 56, alone or in combination; for IgG antibodies to peptide, sera dilution: animals injected with the peptides in CFA
Description: This animal model experiment was designed to simulate a human treatment protocol such as that described in Example 30. Mice were administered subcutaneous injections of 100 μg peptide/100 μl PBS on days 0, 14, 28 and 56. Mice were administered peptide X or peptide Y either alone or in combination. […] There was no specific binding above background levels for IgG or IgE.

B6CBAF1 mice = assay: Murine T cell response after immunization with peptide YZX, IL-2 production (CTLL-2); format: in vivo, mouse; conditions: mice immunized with 100 μg peptide YZX in CFA; label = antigen in culture
Description: 10 B6CBAF1 mice were immunized subcutaneously at the base of the tail and in the thigh region with 100 μg of peptide YZX in complete Freund's adjuvant. After 10 days, the inguinal, paraaortic, and popliteal nodes of the immunized mice were removed and pooled. The lymph node cells were suspended in cold RPMI 1640 with 1% fetal bovine serum (FBS) by passage through stainless steel mesh. The cells were washed 2 times with cold RPMI-1640 containing 1% FBS and maintained at 4° C.
The lymph node cells were plated at 4×10^6 cells/ml in RPMI 1640 with 10% FBS, 250 μg/ml penicillin G, 100 μg/ml streptomycin, and 5×10^−5 M 2-mercaptoethanol. […] After 24 hours, 50 μl of supernatant was removed from each culture and frozen overnight to eliminate live cell carryover. The supernatant was warmed to […] and washed. CTLL-2 indicator cells (ATCC # T1B 214) were added (5×10^3 cells/well). This indicator cell line requires IL-2 for continued growth. After 24 hours, H^3-thymidine (1 μCi/well) was added and the cells were further incubated for 4 hours. The plates were frozen and thawed, harvested on a Tomtec 96 well harvester (Tomtec, Orange, Conn.), and counted on a Betaplate beta counter (Pharmacia, Gaithersburg, Md.).

[1] = test system: Patient 155 TRFP secondary primed T cells; assay: In vitro induction of T cell non-responsiveness, then proliferation on antigenic challenge; format: cell-based, human; conditions: label = tolerance treatment
Description: Patient 155 TRFP secondary primed T cells (2.5×10^6) were rested and cultured with (2.5×10^6) irradiated autologous Epstein Barr Virus transformed B cells (EBV) in 1 ml of complete RPMI with 10% AB serum in 12×75 mm polypropylene snap cap tubes and increasing amounts of antigen over 5 consecutive days. The T cell cultures were exposed to 5 μg/ml purified native TRFP on day 0 and 5 μg/ml, 10 μg/ml, 10 μg/ml and 20 μg/ml thereafter. The peptide treated cultures were exposed to 1 μg/ml peptide on day 0 and 1 μg/ml, 1 μg/ml, 2 μg/ml and 5 μg/ml thereafter. In addition, 0.5 ml of fresh media was replaced on day 2. The cells were then washed and set up for a proliferation assay with 2×10^4 T cells and 2×10^4 irradiated (2500 Rad) autologous EBV and various doses of antigen. T cell proliferation was measured as incorporation of tritiated thymidine at day 9.

[2] = test system: Human T cell lines from four cat allergic patients; assay: IL-2 and IL-4 production by TRFP-primed T cell lines of four cat allergic patients; format: cell-based; conditions: panel of four patients 688, 730, 738, 807
Description: Human T cell lines from four cat allergic patients (patients 688, 730, 738, and 807) were isolated. Heparinized peripheral blood specimens were obtained from cat allergic patients and the mononuclear cell fraction was purified by Ficoll-Hypaque centrifugation. An aliquot of these cells (2×10^6) was stimulated in vitro with purified native TRFP (10 μg/ml) and grown in the presence of recombinant IL-2 and IL-4. The T cell line was then rested in culture until ready for secondary proliferation assay. Two×10^4 cells were cultured in 200 μl medium containing various concentrations of test antigens with 5×10^4 γ-irradiated autologous Epstein-Barr Virus transformed cells as antigen presenting cells. After 3 days of culture, each microwell was pulsed overnight with 1 μCurie tritiated thymidine, and the amount of radioactivity incorporated was measured by liquid scintillation counting. The stimulation index (S.I.) for each antigen was then calculated. […] The IL-2 in the medium was measured by proliferation of the IL-2 dependent T cell line, […]. […] IL-4 was measured by an ELISA purchased from R&D Systems, Minneapolis, Minn. […] The stimulation indices for IL-2 and IL-4 production were calculated by dividing the amount of IL-2 or IL-4 contained in the medium from stimulated T cells divided by the amount of IL-2 or IL04 released by non-stimulated T cells.

Row | Substance | antibodies specific for peptide (IgG or IgE) in sera (mice) | IgG antibodies to peptide, sera dilution (mice) | T cell response of pooled lymph node cells (IL-2 production) (B6CBAF1 mice) | T cell proliferation following antigenic challenge ([1]; challenge with Fel 8-3) | T cell proliferation following antigenic challenge ([1]; challenge with Ragweed Peptide) | T cell proliferation following antigenic challenge ([1]; challenge with TRFP) | T cell proliferation following antigenic challenge ([1]; no antigenic challenge (—)) | IL-4 versus IL-2 production [2]
1 | peptide X: amino acid residues 7-30 from chain 1 of TRFP (SEQ. ID. NO: 17); Table 2 lists Fel 8-3 as 7-33 (KRDVDLFLTGTPDEYVEQVAQYKALPV) | no antibodies specific for either peptide | 1/4500 | significant response | 3,850 cmp | 5,130 cmp | 12,320 cmp | 1,270 cmp | –
2 | TRFP: human T cell reactive feline protein affinity purified from house dust; two covalently linked chains | – | – | – | 36,030 cmp | 6,670 cmp | 33,160 cmp | 2,190 cmp | favors IL-4 as opposed to IL-2
3 | NARILKNCVDAKMTEEDKE [Fel 4, TRFP chain 1 amino acids 37-55] | – | – | – | – | – | – | – | induces more IL-4 than IL-2
4 | peptide Y: amino acid residues 29-55 from chain 1 of TRFP (SEQ. ID. NO: 18) (KALPVVLENARILKNCVDAKMTEEDKE) | no antibodies specific for either peptide | 1/4500 | significant response | – | – | – | – | –

Reference: US7482008B1, “Human T cell reactive feline protein (TRFP) isolated from house dust and uses therefor” (Merck Patent GmbH, priority 1989, dated 2009)
